Experimental data taken from paper PMC11992225, “Antibacterial compounds against non-growing and intracellular bacteria” (npj Antimicrobials and Resistance, 2025).

How the values were obtained:
[1] = test system: non-growing P. aeruginosa; assay: Time-dependent effects of drug treatment on regrowth, P. aeruginosa; format: cell-based, Pseudomonas aeruginosa; details: 10 µM, OD600 8 h after dilution
Method: (§1) For screening and concentration-dependent characterization of the hit compounds, we used a 24-h incubation to capture their effects, although the actual onset of their activity may occur much sooner. To assess the speed of action, we treated stationary-phase cultures of three organisms with compounds that had previously shown a strong regrowth delay at 10 µM. We selected compounds that, in earlier tests, strongly delayed regrowth, such that diluted cultures remained below an OD600 of 0.12 (indicating no growth) after 6 h for UPEC or 8 h for P. aeruginosa and S. aureus in drug-free medium.
(§2) We collected samples at different times during the 24-h incubation, diluted them 2500-fold, and measured the OD600 after 6 or 8 h of further incubation, respectively. […] Rifampicin acts quickly against non-growing S. aureus, while the effects of the other compounds increase gradually during incubation but are already apparent within the first hour of treatment.
Bacteria were cultivated in 1:4 diluted CA-MHB (40 mM HEPES, pH 7.4) for 24 h. Aliquots were dispensed into a 96-well plate, and compounds were added at a 10 µM concentration. Samples were collected at designated time points, diluted 2500-fold as described for the dilution-regrowth assay, and incubated in standing plates within a humid box at 37 °C. The OD600 of the samples was measured to assess regrowth using a microplate reader (BioTek Synergy H1) after 6 h for UPEC and 8 h for P. aeruginosa and S. aureus. The experiment was performed in triplicates.

TC7 cells = assay: TC7 cell viability upon drug exposure, MTS assay; format: cell-based; details: at the MIC concentrations, 12 h, no bacteria
Method: TC7 cells were grown to confluence in transparent 96-well cell culture plates (TPP) in the same cell culture medium used for the in vitro infection assay. Just prior to the experiment, the medium was discarded, and the cells were washed twice with sterile PBS to remove any traces of medium or dead cells. […] The plate was incubated at 37 °C in a CO2 incubator for 12 h, under the same conditions as the infection assay.
The 3-(4,5-dimethylthiazol-2-yl)-5-(3-carboxymethoxyphenyl)-2-(4-sulfophenyl)-2H-tetrazolium (MTS) assay was performed using the CellTiter 96® AQueous One Solution Cell Proliferation Assay kit (Promega), according to the manufacturer’s instructions. Briefly, 20 μl of CellTiter 96 AQueous One Solution Reagent was added to each well, and the plate was incubated for 2 h at 37 °C in a CO2 incubator. The OD490 of the samples was measured using a Spark multimode plate reader (Tecan). The raw values were normalized to the control wells incubated with infection buffer only. The experiment was performed in duplicate.

non-growing S. aureus = assay: Time-dependent effects of drug treatment on regrowth, S. aureus; format: cell-based, Staphylococcus aureus; details: 10 µM, OD600 8 h after dilution
Method: as §1, §2
(§3) Bacteria were cultivated in 1:4 diluted CA-MHB (40 mM HEPES, pH 7.4) for 24 h. Aliquots were dispensed into a 96-well plate, and compounds were added at a 10 µM concentration. […] The OD600 of the samples was measured to assess regrowth using a microplate reader (BioTek Synergy H1) after 6 h for UPEC and 8 h for P. aeruginosa and S. aureus. […]

non-growing UPEC CFT073 = assay: Time-dependent effects of drug treatment on regrowth, UPEC; format: cell-based, Escherichia coli; details: E. coli, 10 µM, OD600 6 h after dilution
Method: as §1, §2, §3

SMILES	speed of action: regrowth delay over treatment time [1]	toxicity to TC7 epithelial cells (TC7 cells)	further results
CC(=O)[O][Pt]([NH2])([Cl])([Cl])([NH]C1CCCCC1)[O]C(C)=O [Satraplatin]	act more slowly	toxic	
CO[C@H]1/C=C/O[C@@]2(C)Oc3c(C)c(O)c4c(O)c(c(/C=N/N5CCN(C)CC5)c(O)c4c3C2=O)NC(=O)/C(C)=C\C=C\[C@H](C)[C@H](O)[C@@H](C)[C@@H](O)[C@@H](C)[C@H](OC(C)=O)[C@@H]1C [Rifampicin]			speed of action: regrowth delay over treatment time (non-growing S. aureus): acts quickly
C[C@@H]1CN(c2c(F)c(N)c3c(=O)c(C(=O)O)cn(C4CC4)c3c2F)C[C@H](C)N1 [Sparfloxacin]	act more slowly		
CCCCC(CC)CNC(=N)NC(=N)NCCCCCCNC(=N)NC(=N)NCC(CC)CCCC (stereo not drawn) [Alexidine]		toxic	
C[C@H]1NCc2cc(-c3ccc4c(=O)c(C(=O)O)cn(C5CC5)c4c3OC(F)F)ccc21 [Garenoxacin]			speed of action: regrowth delay over treatment time (non-growing UPEC CFT073): act more slowly
C=C[C@]1(C)C[C@@H](OC(=O)CSC(C)(C)CNC(=O)[C@H](N)C(C)C)[C@]2(C)[C@H](C)CC[C@]3(CCC(=O)[C@H]32)[C@@H](C)[C@@H]1O [Valnemulin]		toxic	
CN1CCN(c2cc3c(cc2F)c(=O)c(C(=O)O)cn3-c2ccc(F)cc2)CC1 [Difloxacin]	act more slowly		
N[C@@H]1[C@H]2CN(c3nc4c(cc3F)c(=O)c(C(=O)O)cn4-c3ccc(F)cc3F)C[C@@H]12 [Trovafloxacin]	act more slowly		
